ChEMBL document CHEMBL1147792, “Functional organisation and gain of activity: the case of the antibacterial tetra-para-guanidinoethyl-calix[4]arene” (Bioorg Med Chem Lett, 2006)
Where “and” joins values, the source holds several entries; their conditions need not be identical. Equal values may be shown once. Calls of active or inactive are those of the source. The calls are words filed in the database; no cut-off is given here.

Columns and labels:
Escherichia coli [1] = experiment: Antibacterial activity against Escherichia coli ATCC 25922 at 256 ug by disk diffusion method; assay type: functional
Pseudomonas aeruginosa [2] = experiment: Antibacterial activity against Pseudomonas aeruginosa ATCC 27853 at 256 ug by disk diffusion method; assay type: functional, organism-based
Staphylococcus aureus [3] = experiment: Antibacterial activity against Staphylococcus aureus ATCC 25923 at 256 ug by disk diffusion method; assay type: functional
Enterococcus faecalis [4] = experiment: Antibacterial activity against Enterococcus faecalis ATCC 29212 at 256 ug by disk diffusion method; assay type: functional, organism-based
Enterococcus faecalis [5] = experiment: Antibacterial activity against Enterococcus faecalis ATCC 29212 at 128 ug by disk diffusion method; assay type: functional, organism-based
Escherichia coli [6] = experiment: Antibacterial activity against Escherichia coli ATCC 25922 at 128 ug by disk diffusion method; assay type: functional, organism-based
Pseudomonas aeruginosa [7] = experiment: Antibacterial activity against Pseudomonas aeruginosa ATCC 27853 at 128 ug by disk diffusion method; assay type: functional, organism-based
Staphylococcus aureus [8] = experiment: Antibacterial activity against Staphylococcus aureus ATCC 25923 at 128 ug by disk diffusion method; assay type: functional, organism-based
Escherichia coli [9] = experiment: Antibacterial activity against Escherichia coli ATCC 25922 at 65 ug by disk diffusion method; assay type: functional, organism-based
Pseudomonas aeruginosa [10] = experiment: Antibacterial activity against Pseudomonas aeruginosa ATCC 27853 at 65 ug by disk diffusion method; assay type: functional, organism-based
Staphylococcus aureus [11] = experiment: Antibacterial activity against Staphylococcus aureus ATCC 25923 at 65 ug by disk diffusion method; assay type: functional, organism-based
Enterococcus faecalis [12] = experiment: Antibacterial activity against Enterococcus faecalis ATCC 29212 at 65 ug by disk diffusion method; assay type: functional, organism-based
Escherichia coli [13] = experiment: Antibacterial activity against Escherichia coli ATCC 25922 at 32 ug by disk diffusion method; assay type: functional, organism-based
Pseudomonas aeruginosa [14] = experiment: Antibacterial activity against Pseudomonas aeruginosa ATCC 27853 at 32 ug by disk diffusion method; assay type: functional, organism-based
Staphylococcus aureus [15] = experiment: Antibacterial activity against Staphylococcus aureus ATCC 25923 at 32 ug by disk diffusion method; assay type: functional, organism-based
Enterococcus faecalis [16] = experiment: Antibacterial activity against Enterococcus faecalis ATCC 29212 at 32 ug by disk diffusion method; assay type: functional, organism-based
Escherichia coli [17] = experiment: Antibacterial activity against Escherichia coli ATCC 25922; assay type: functional
Pseudomonas aeruginosa [18] = experiment: Antibacterial activity against Pseudomonas aeruginosa ATCC 27853; assay type: functional
Staphylococcus aureus [19] = experiment: Antibacterial activity against Staphylococcus aureus ATCC 25923; assay type: functional
Enterococcus faecalis [20] = experiment: Antibacterial activity against Enterococcus faecalis ATCC 29212; assay type: functional
MRC5 [21] = experiment: Viability of human MRC5 cells after 48 hrs; assay type: functional, cell-based; conditions: MRC5, 48 h
MRC5 [22] = experiment: Ratio of IC50 for viability of MRC5 cells after 48 hrs to MIC for Escherichia coli ATCC 25922; assay type: functional
MRC5 [23] = experiment: Ratio of IC50 for viability of MRC5 cells after 48 to MIC for Pseudomonas aeruginosa ATCC 27853; assay type: functional
MRC5 [24] = experiment: Ratio of IC50 for viability of MRC5 cells after 48 to MIC for Staphylococcus aureus ATCC 25923; assay type: functional
MRC5 [25] = experiment: Ratio of IC50 for viability of MRC5 cells after 48 to MIC for Enterococcus faecalis ATCC 29212; assay type: functional
Escherichia coli [26] = experiment: Antibacterial activity against Escherichia coli ATCC 25922 against at 135 ug by disk diffusion method; assay type: functional
Escherichia coli [27] = experiment: Antibacterial activity against Escherichia coli ATCC 25922 at 67 ug by disk diffusion method; assay type: functional
Pseudomonas aeruginosa [28] = experiment: Antibacterial activity against Pseudomonas aeruginosa ATCC 27853 at 135 ug by disk diffusion method; assay type: functional, organism-based
Escherichia coli [29] = experiment: Antibacterial activity against Escherichia coli ATCC 25922 at 270 ug by disk diffusion method; assay type: functional
Pseudomonas aeruginosa [30] = experiment: Antibacterial activity against Pseudomonas aeruginosa ATCC 27853 at 270 ug by disk diffusion method; assay type: functional
Staphylococcus aureus [31] = experiment: Antibacterial activity against Staphylococcus aureus ATCC 25923 at 270 ug by disk diffusion method; assay type: functional
Enterococcus faecalis [32] = experiment: Antibacterial activity against Enterococcus faecalis ATCC 29212 at 270 ug by disk diffusion method; assay type: functional
Staphylococcus aureus [33] = experiment: Antibacterial activity against Staphylococcus aureus ATCC 25923 at 135 ug by disk diffusion method; assay type: functional
Enterococcus faecalis [34] = experiment: Antibacterial activity against Enterococcus faecalis ATCC 29212 at 135 ug by disk diffusion method; assay type: functional
Pseudomonas aeruginosa [35] = experiment: Antibacterial activity against Pseudomonas aeruginosa ATCC 27853 at 67 ug by disk diffusion method; assay type: functional, organism-based
Staphylococcus aureus [36] = experiment: Antibacterial activity against Staphylococcus aureus ATCC 25923 at 67 ug by disk diffusion method; assay type: functional
Enterococcus faecalis [37] = experiment: Antibacterial activity against Enterococcus faecalis ATCC 29212 at 67 ug by disk diffusion method; assay type: functional
Escherichia coli [38] = experiment: Antibacterial activity against Escherichia coli ATCC 25922 at 34 ug by disk diffusion method; assay type: functional, organism-based
Pseudomonas aeruginosa [39] = experiment: Antibacterial activity against Pseudomonas aeruginosa ATCC 27853 at 34 ug by disk diffusion method; assay type: functional, organism-based
Staphylococcus aureus [40] = experiment: Antibacterial activity against Staphylococcus aureus ATCC 25923 at 34 ug by disk diffusion method; assay type: functional
Enterococcus faecalis [41] = experiment: Antibacterial activity against Enterococcus faecalis ATCC 29212 at 34 ug by disk diffusion method; assay type: functional, organism-based

`N=C(N)NCCc1ccc(O)cc1.O=C(O)C(F)(F)F` was tested, and the inhibition zone (IZ) (Escherichia coli [1]) was 7.6 mm, the “inhibition zone (IZ)” value (Pseudomonas aeruginosa [2]) was “inactive” and the inhibition zone (IZ) (Staphylococcus aureus [3]) was 7.8 mm. For the same molecule, the “inhibition zone (IZ)” value (Enterococcus faecalis [4]) was “inactive”, the “inhibition zone (IZ)” value (Enterococcus faecalis [5]) was “inactive” and the “inhibition zone (IZ)” value (Escherichia coli [6]) was “inactive”. The “inhibition zone (IZ)” value (Pseudomonas aeruginosa [7]) was “inactive”, the “inhibition zone (IZ)” value (Staphylococcus aureus [8]) was “inactive” and the “inhibition zone (IZ)” value (Escherichia coli [9]) was “inactive”. The “inhibition zone (IZ)” value (Pseudomonas aeruginosa [10]) was “inactive”, the “inhibition zone (IZ)” value (Staphylococcus aureus [11]) was “inactive” and the “inhibition zone (IZ)” value (Enterococcus faecalis [12]) was “inactive”. The “inhibition zone (IZ)” value (Escherichia coli [13]) was “inactive”, the “inhibition zone (IZ)” value (Pseudomonas aeruginosa [14]) was “inactive” and the “inhibition zone (IZ)” value (Staphylococcus aureus [15]) was “inactive”. The “inhibition zone (IZ)” value (Enterococcus faecalis [16]) was “inactive”, the MIC (Escherichia coli [17]) was 512 µg/mL and 1750 µM and the MIC (Pseudomonas aeruginosa [18]) was 512 µg/mL and 1750 µM. The MIC (Staphylococcus aureus [19]) was 512 µg/mL and 1750 µM, the MIC (Enterococcus faecalis [20]) was ≥ 512 µg/mL and 1750 µM and the IC50 (MRC5 [21]) was 850 µM. For the same molecule, the Selectivity index (MRC5 [22]) was 0.48, the Selectivity index (MRC5 [23]) was 0.48 and the Selectivity index (MRC5 [24]) was 0.48. The Selectivity index (MRC5 [25]) was “<=0.48”.
In the case of `N=C(N)NCCc1cc2c(O)c(c1)Cc1cc(CCNC(=N)N)cc(c1O)Cc1cc(CCNC(=N)N)cc(c1O)Cc1cc(CCNC(=N)N)cc(c1O)C2.O=C(O)C(F)(F)F.O=C(O)C(F)(F)F.O=C(O)C(F)(F)F.O=C(O)C(F)(F)F`, the inhibition zone (IZ) (Escherichia coli [26]) is reported as 9.3 mm, the inhibition zone (IZ) (Escherichia coli [27]) is reported as 7.3 mm and the “inhibition zone (IZ)” value (Pseudomonas aeruginosa [28]) is reported as “inactive”. The inhibition zone (IZ) (Escherichia coli [29]) was 11.2 mm, the inhibition zone (IZ) (Pseudomonas aeruginosa [30]) was 7.8 mm and the inhibition zone (IZ) (Staphylococcus aureus [31]) was 11 mm. For the same molecule, the inhibition zone (IZ) (Enterococcus faecalis [32]) was 10 mm, the inhibition zone (IZ) (Staphylococcus aureus [33]) was 9 mm and the inhibition zone (IZ) (Enterococcus faecalis [34]) was 8.3 mm. The “inhibition zone (IZ)” value (Pseudomonas aeruginosa [35]) was “inactive”, the inhibition zone (IZ) (Staphylococcus aureus [36]) was 8 mm and the inhibition zone (IZ) (Enterococcus faecalis [37]) was 6.6 mm. The “inhibition zone (IZ)” value (Escherichia coli [38]) was “inactive”, the “inhibition zone (IZ)” value (Pseudomonas aeruginosa [39]) was “inactive” and the inhibition zone (IZ) (Staphylococcus aureus [40]) was 6.3 mm. The “inhibition zone (IZ)” value (Enterococcus faecalis [41]) was “inactive”, the MIC (Escherichia coli [17]) was 16 µg/mL and 13 µM and the MIC (Pseudomonas aeruginosa [18]) was 16 µg/mL and 13 µM. For the same molecule, the MIC (Staphylococcus aureus [19]) was 16 µg/mL and 13 µM, the MIC (Enterococcus faecalis [20]) was 64 µg/mL and 51 µM and the IC50 (MRC5 [21]) was 560 µM. It also gave a Selectivity index (MRC5 [22]) of 43, a Selectivity index (MRC5 [23]) of 43 and a Selectivity index (MRC5 [24]) of 43. It also gave a Selectivity index (MRC5 [25]) of 11.
